Results from US20180312534A1, “FLUORESCENT ANTICANCER PLATINUM DRUGS” (INVICTUS ONCOLOGY PVT. LTD., priority 2015, published 2018).

Test system: A549
Assay: Cellular uptake of fluorescent compounds (fluorescence microscopy)
Assay type: cell-based
Details: A549, post 5-hours incubation
Protocol: The intracellular localization of molecules was visualized by fluorescence microscopy. Cells were seeded on cover slips to a confluency of 40% and grown for 24 hours in a humidified chamber. Cells were treated with fluorescent compounds and incubated for 2, 5 and 24 hours. Following incubation, cells were washed with PBS, fixed in 4% paraformaldehyde and observed under epifluorescence microscope. Images were recorded in phase contrast and fluorescent channels. Cells treated with vehicle and/or ligand were considered as control and microscopically evaluated.

NCC(N)C(=O)OCCNc1ccc2cccc3c2c1C(=O)C=C3 (stereo not shown) [Im-02]
intracellular localization of fluorescence: punctate dots in the cytoplasm or along cell margins
